The results in this text go back to patent US8044198B2, “Sirtuin modulating compounds” (Sirtris Pharmaceuticals, Inc., priority 2005, dated 2011).

The target of the assay is T1, SIRT1 (Homo sapiens, UniProt Q96EB6).
T1 sequence (Q96EB6 1-747): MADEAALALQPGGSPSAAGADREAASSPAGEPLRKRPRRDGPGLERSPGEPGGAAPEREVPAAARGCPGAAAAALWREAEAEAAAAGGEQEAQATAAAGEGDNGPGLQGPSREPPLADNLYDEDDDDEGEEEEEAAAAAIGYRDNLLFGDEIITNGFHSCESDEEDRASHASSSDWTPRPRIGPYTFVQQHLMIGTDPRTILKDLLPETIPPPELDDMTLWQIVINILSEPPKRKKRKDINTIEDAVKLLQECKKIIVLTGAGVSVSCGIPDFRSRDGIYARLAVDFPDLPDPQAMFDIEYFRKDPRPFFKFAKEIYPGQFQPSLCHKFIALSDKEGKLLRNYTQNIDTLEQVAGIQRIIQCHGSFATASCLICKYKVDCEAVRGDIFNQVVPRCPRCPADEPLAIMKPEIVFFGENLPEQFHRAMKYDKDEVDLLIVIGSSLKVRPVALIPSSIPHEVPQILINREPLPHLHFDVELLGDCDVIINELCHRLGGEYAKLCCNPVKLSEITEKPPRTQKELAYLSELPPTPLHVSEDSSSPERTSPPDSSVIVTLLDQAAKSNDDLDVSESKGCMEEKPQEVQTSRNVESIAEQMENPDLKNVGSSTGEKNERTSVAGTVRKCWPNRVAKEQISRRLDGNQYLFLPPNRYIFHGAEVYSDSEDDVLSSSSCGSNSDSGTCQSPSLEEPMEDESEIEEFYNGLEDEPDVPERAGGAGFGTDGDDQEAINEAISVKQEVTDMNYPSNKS
Briefly: SIRT1 mass spectrometry (MS) based deacetylation assay. The class given is biochemical. The following applies: for IC50: Sirt1 Inhibitors.

The mark [1] stands for this setting: Sirt1 activators, fold activation as determined by MS.
The mark [2] stands for this setting: Sirt1 activators, mass spectrometry assay, read-out: ED50 MS ASSAY.
[3] abbreviates: SIRT1 activation, mass spectrometry assay, read-out: ED50 MS ASSAY.
[4] abbreviates: SIRT1 fold activation as determined by MS.

Each structure is given as a SMILES string. Read-outs that look alike come from different tables or passages of the source. Some results are limits rather than exact numbers.

Consider `CN1CCN(C(=O)Cc2csc3nc(-c4ccccc4NC(=O)c4cnc5ccccc5n4)cn23)CC1` [Compound 649], for which, under setting [1], the “FOLD ACT. MS” value is “A (A (Fold activation >250%))”. Besides, under setting [2], the EC50 is under 5 µM.

Consider `CC(=O)N1CCN(Cc2csc3nc(-c4ccccc4NC(=O)c4cnc5ccccc5n4)cn23)CC1` [Compound 651], for which the “FOLD ACT. MS” value under setting [1] is “A (A (Fold activation >250%))”. For the same molecule, the EC50 under setting [2] is under 5 µM.

Broadly, the IC50 is the concentration needed to halve the response being measured. `O=S(=O)(Nc1cc(-c2nc3ncccc3o2)ccn1)c1ccc(Cl)cc1` [Compound 652] returned an IC50 (mass spectrometry assay) of 51 to 100 µM.

Molecule `COc1ccc(C)cc1S(=O)(=O)Nc1cc(-c2nc3ncccc3o2)ccn1` [Compound 653] displayed an IC50 (mass spectrometry assay) of 101 to 150 µM.

Under “mass spectrometry assay”, `O=S(=O)(Nc1cccc(-c2nc3ccncc3s2)c1)c1ccc(S(=O)(=O)c2ccccc2)s1` [Compound 654] registered a half-inhibitory concentration (IC50) of over 150 µM.

Regarding `COc1ccc(NC(=S)Nc2cc(-c3nc4ncccc4o3)ccn2)cc1OC` [Compound 660], the “FOLD ACT. MS” value under setting [1] is “B (B (Fold Activation <250%))”. Under setting [2], the EC50 fell in the range of 5 to 50 µM.

As for `COc1cc(NC(=S)Nc2cc(-c3nc4ncccc4o3)ccn2)cc(OC)c1` [Compound 661], under setting [1], the “FOLD ACT. MS” value is on record as “B (B (Fold Activation <250%))”. Under setting [2], the EC50 was under 5 µM.

In the case of `COc1cc(NC(=S)Nc2cc(-c3nc4ncccc4o3)ccn2)cc(OC)c1OC` [Compound 663], under setting [1], the “FOLD ACT. MS” value is “B (B (Fold Activation <250%))”. Besides, under setting [2], the EC50 was in the range of 5 to 50 µM.

With `FC(F)(F)c1cccc(Cl)c1NC(=S)Nc1cc(-c2nc3ncccc3o2)ccn1` [Compound 667], the EC50 under setting [2] lay within 5 to 50 µM.

For `O=C(Nc1ccccc1-c1nc2ncccc2o1)c1ccc(Oc2ncccn2)cc1` [Compound 668], the “FOLD ACT. MS” value under setting [1] is recorded as “B (B (Fold Activation <250%))”. For the same molecule, the EC50 under setting [2] lay in the range of 5 to 50 µM.

In the case of `COc1ccc(OC(=O)Nc2ccccc2-c2nc3ncccc3o2)cc1OC` [Compound 670], the EC50 is 5 to 50 µM. Moreover, the “FOLD ACT. MS” value under setting [1] is on record as “B (B (Fold Activation <250%))”.

`O=C(Nc1ccccc1-c1cn2c(CNCC(O)CO)csc2n1)c1cnc2ccccc2n1` (stereo not drawn) [Compound 676]: the “FOLD ACT. MS” value under setting [1] is on record as “A (A (Fold activation >250%))”. The EC50 under setting [2] is under 5 µM.

For `O=C1CN(Cc2csc3nc(-c4ccccc4NC(=O)c4cnc5ccccc5n4)cn23)CCN1` [Compound 677], under setting [1], the “FOLD ACT. MS” value is reported as “A (A (Fold activation >250%))”. Further, the EC50 under setting [2] was under 5 µM.

For the molecule `Cc1cc(C(=O)Nc2ccccc2-c2cn3c(CN4CCNCC4)csc3n2)n(C)n1` [Compound 678], under setting [1], the “FOLD ACT. MS” value is “B (B (Fold Activation <250%))”. Besides, the EC50 under setting [2] was in the range of 5 to 50 µM.

In the case of `COc1ccc(C(=O)Nc2ccccc2-c2cn3c(CN4CCNCC4)csc3n2)cc1F` [Compound 679], the “FOLD ACT. MS” value under setting [1] is recorded as “B (B (Fold Activation <250%))”. Also, the EC50 under setting [2] is 5 to 50 µM.

Regarding `O=C(Nc1ccccc1-c1cn2c(CCN3CCNCC3)csc2n1)c1cnc2ccccc2n1` [Compound 680], under setting [1], the “FOLD ACT. MS” value is given as “A (A (Fold activation >250%))”. Also, under setting [2], the EC50 is under 5 µM.

On to `COc1cc(C(=O)Nc2ccccc2-c2nc3cc(CN4CCOCC4)cnc3s2)cc(OC)c1OC` [Compound 681], for which the EC50 under setting [2] lay within 5 to 50 µM.

Take `O=C(Nc1ccccc1-c1nc2cc(CN3CCOCC3)cnc2s1)c1ccc2c(c1)OCO2` [Compound 683]: the EC50 under setting [3] lay in the range of 5 to 50 µM. Moreover, the “FOLD ACT. MS” value under setting [4] is reported as “B (B (Fold Activation <250%))”.

Consider `Cc1ccc(C(=O)Nc2ccccc2-c2nc3cc(CN4CCOCC4)cnc3s2)cc1C` [Compound 684], for which the EC50 under setting [3] is 5 to 50 µM. For the same molecule, the “FOLD ACT. MS” value under setting [4] is “B (B (Fold Activation <250%))”.

Take `N#Cc1cccc(C(=O)Nc2ccccc2-c2nc3cc(CN4CCOCC4)cnc3s2)c1` [Compound 685]: under setting [3], the EC50 is under 5 µM. In addition, the “FOLD ACT. MS” value under setting [4] is reported as “B (B (Fold Activation <250%))”.

Consider `CN(C)c1cccc(C(=O)Nc2ccccc2-c2nc3cc(CN4CCOCC4)cnc3s2)c1` [Compound 686], for which the EC50 under setting [3] was under 5 µM. The “FOLD ACT. MS” value under setting [4] is recorded as “A (A (Fold activation >250%))”.

Regarding `COc1cc(C(=O)Nc2ccccc2-c2nc3cc(CN(C)C)cnc3s2)cc(OC)c1OC` [Compound 689], under setting [3], the EC50 lay within 5 to 50 µM. Moreover, the “FOLD ACT. MS” value under setting [4] is on record as “A (A (Fold activation >250%))”.

Turning to `O=C(Nc1ccccc1-c1nc2ccc(CN3CCNCC3)nc2s1)c1cnc2ccccc2n1` [Compound 690], the EC50 under setting [3] was under 5 µM. In addition, the “FOLD ACT. MS” value under setting [4] is given as “A (A (Fold activation >250%))”.

In the case of `O=C(Nc1ccccc1-c1cn2c(CN3CCNCC3)csc2n1)c1cccc2cccnc12` [Compound 692], under setting [3], the EC50 fell in the range of 101 to 150 µM. Under setting [4], the “FOLD ACT. MS” value was “B (B (Fold Activation <250%))”.

Turning to `O=C(Nc1ccccc1-c1cn2c(CN3CCNCC3)csc2n1)c1cc(F)cc(F)c1` [Compound 695], the EC50 under setting [3] was under 5 µM. Moreover, the “FOLD ACT. MS” value under setting [4] is “A (A (Fold activation >250%))”.

Turning to `O=C(Nc1ccccc1-c1cn2c(CN3CCNCC3)csc2n1)c1cccc(OC(F)(F)F)c1` [Compound 698], the EC50 under setting [3] was under 5 µM. In addition, under setting [4], the “FOLD ACT. MS” value is given as “A (A (Fold activation >250%))”.

With `O=C(Nc1ccccc1-c1cn2c(COCC(O)CO)csc2n1)c1cnc2ccccc2n1` (stereo not drawn) [Compound 699], the EC50 under setting [3] fell in the range of 5 to 50 µM. Further, under setting [4], the “FOLD ACT. MS” value is “A (A (Fold activation >250%))”.

As to `COc1cc(C(=O)Nc2ccccc2-c2nc3cc(CN4CCN(C)CC4)cnc3s2)cc(OC)c1OC` [Compound 702], under setting [3], the EC50 fell in the range of 5 to 50 µM. Besides, the “FOLD ACT. MS” value under setting [4] is “A (A (Fold activation >250%))”.

Consider `Cc1csc2nc(-c3ccccc3NC(=O)c3cnc4ccccc4n3)cn12` [Compound 707], for which the EC50 under setting [3] was under 5 µM. In addition, under setting [4], the “FOLD ACT. MS” value is “A (A (Fold activation >250%))”.

Regarding `O=C(Nc1ccccc1-c1cn2c(CN3CCNCC3)csc2n1)c1ccc(-c2ccccc2)cc1` [Compound 708], under setting [3], the EC50 is under 5 µM. Besides, the “FOLD ACT. MS” value under setting [4] was “A (A (Fold activation >250%))”.

`O=C(Nc1ccccc1-c1cn2c(CN3CCNCC3)csc2n1)c1cccc(-c2ccccc2)c1` [Compound 710]: under setting [3], the EC50 is under 5 µM. For the same molecule, the “FOLD ACT. MS” value under setting [4] is “A (A (Fold activation >250%))”.

Consider `CC(C)(C)OC(=O)CNCc1csc2nc(-c3ccccc3NC(=O)c3cnc4ccccc4n3)cn12` [Compound 711], for which, under setting [3], the EC50 was in the range of 5 to 50 µM. The “FOLD ACT. MS” value under setting [4] was “B (B (Fold Activation <250%))”.

Regarding `O=C(Nc1ccccc1-c1cn2c(CN3CCC(F)CC3)csc2n1)c1cnc2ccccc2n1` [Compound 714], under setting [3], the EC50 lay in the range of 5 to 50 µM. Besides, the “FOLD ACT. MS” value under setting [4] is “B (B (Fold Activation <250%))”.

Take `O=C(Nc1ccccc1-c1cn2c(CN3CCSC3)csc2n1)c1cnc2ccccc2n1` [Compound 715]: the EC50 under setting [3] is under 5 µM. In addition, under setting [4], the “FOLD ACT. MS” value is “B (B (Fold Activation <250%))”.

With `NC1CCN(Cc2csc3nc(-c4ccccc4NC(=O)c4cnc5ccccc5n4)cn23)CC1` [Compound 716], the EC50 under setting [3] was under 5 µM. Further, the “FOLD ACT. MS” value under setting [4] was “A (A (Fold activation >250%))”.

For the molecule `O=C(Nc1ccccc1-c1cn2c(CN3CC(F)(F)C3)csc2n1)c1cnc2ccccc2n1` [Compound 717], under setting [3], the EC50 was 5 to 50 µM. Also, the “FOLD ACT. MS” value under setting [4] is listed as “B (B (Fold Activation <250%))”.

On to `O=C(Nc1ccccc1-c1cn2c(C(=O)O)csc2n1)c1cnc2ccccc2n1` [Compound 719], for which the EC50 under setting [3] was 5 to 50 µM. Moreover, the “FOLD ACT. MS” value under setting [4] is listed as “A (A (Fold activation >250%))”.
